# In patent US9556231B2, “Beta-hairpin peptidomimetics as CXC4 antagonists” (POLYPHOR AG, priority 2011, dated 2017):
# Read-outs that look alike come from different tables or passages of the source. Bridge positions count the residues as written; N and C are the ends. Square brackets hold non-standard residues; d marks the D form. Peptide text beside a SMILES is read from it. Lys(iPr) = CC(C)NCCCC[C@H](N)C(=O)O; Orn(iPr) = CC(C)NCCC[C@H](N)C(=O)O; Dab = NCC[C@H](N)C(=O)O
# Tests used:
# [1] = Plasma stability, mouse plasma; assay type: in vitro ADME; settings: 37° C.; for remaining at 24 h / remaining at 24 h, 10 μM: 1440 min, read-out: mouse pl. cpd left at 1440 min; for mouse pl. T1/2: up to 1440 min
# Method: The stability of the peptides in human and mouse plasma was determined by applying the following method: 346.5 μL/deep well of freshly thawed human plasma (Basler Blutspende-dienst) and mouse plasma (Harlan Sera-Lab, UK), respectively, were spiked with 3.5 μL/well of compound dissolved in DMSO/H2O (90/10 [v/v], 1 mM, triplicate) and incubated at 37° C. At t=0, 15, 30, 60, 120, 240 and 1440 min aliquots of 50 μL were transferred to filtration plate wells containing 150 μL/well of 2% formic acid in acetonitrile. Following shaking for 2 min the occurred suspensions were filtrated by vacuum. 100 μL of each filtrate were transferred to a propylene microtiter plate and dried under N2. The residual solids were reconstituted by adding 100 μL/well of water/acetonitrile, 95/5 (v/v)+0.2% formic acid and analyzed by LC/MS as follows: Column: Waters, XBridge C18, mobile phases: (A) water+0.1% formic acid and (B) acetonitrile/water, 95/5 (v/v)+0.1% formic acid, gradient: 5%-100% (B) in 1.8 minutes, electrospray ionization, MRM detection (triple quadrupole). The peak areas were determined and triplicate values are averaged. The stability is expressed in percent of the initial value at t=0·(tx/t0×100). By using the TREND function of EXCEL (Microsoft Office 2003) T1/2 were determined.
# Plasma protein binding = assay type: in vitro ADME; settings: for fraction unbound: human, plasma; for fraction unbound at 1 h, 10 μM: human plasma
# Method: 495 μL aliquots of human plasma (Basler Blutspendedienst) as well as 495 μL aliquots of PBS were placed in individual deepwells of a polypropylene plate (Greiner) and spiked each with 5 μL of 1 mM solutions of peptides in 90% DMSO. After shaking the plate for 2 min at 600 rpm 150 μL aliquots of the plasma/peptide mixtures were transferred in triplicates to the polypropylene filter plate (10 kDa, Millipore) whereas 150 μL aliquots of the PBS/peptide mixtures were transferred either to the individual wells of the filter plate (filtered controls) or directly into the individual wells of the receiving plate (Greiner) (non-filtered controls). The plate sandwich consisting of filter and receiving plate was incubated for 1 h at 37° C. and subsequently centrifuged at 3220 g for 2 h at 15° C. The filtrates in the receiving plate were analysed by LC/MS as follows: Column: Waters, XBridge C18, mobile phases: (A) water+0.1% formic acid and (B) acetonitrile/water, 95/5 (v/v)+0.1% formic acid, gradient: 5%-100% (B) in 1.8 min, electrospray ionization, MRM detection (triple quadrupole). The peak areas were determined and triplicate values are averaged. The binding is expressed in percent of the filtered and non-filtered controls by 100−(100×T1h/Tctr). Finally the average of these values is calculated.
# HSC mobilization = HSC mobilization in mouse, dose-response study (CFU-C assay); assay type: in vivo; settings: C57Bl/6 mice, 5 mg/kg i.p., at time of maximum mobilization (Ex. 1 4 h, Ex. 2 2 h)
# Method: For the compounds of Ex. 1 and Ex. 2 a HSC mobilization study was performed consisting of a time-response study to assess the time of maximum mobilization after dosing and a subsequent dose-response study.
# Male C57Bl/6 mice (Janvier, France; n=5 per dose group for Ex. 1, n=3 per dose group for Ex. 2) received bolus i.p. injections of Ex. 1 and Ex. 2, respectively, at doses of 0.5, 1.5, 5 and 15 mg/kg (compound dissolved in 10 μL of water per g mouse weight containing 0.9% NaCl). Blood was collected as described above at the time of maximum mobilization for Ex. 1 (4 h) and Ex. 2 (2 h), respectively.
# CFU-C counts were determined by culturing aliquots of lysed peripheral blood in standard semi-solid progenitor cell culture medium. In brief, a defined amount of blood was washed with PBS buffer (Gibco®) containing 0.5% bovine serum albumin, followed by red blood cell lysis in hypotonic NH4Cl buffer (Sigma) and a second wash step. The cell pellet was resuspended in DMEM (Gibco®) containing 10% FCS, suspended in 2 mL of commercially available, cytokine-replete methylcellulose medium for murine cells (Cell Systems, USA), and plated in duplicate into 35 mm cell culture dishes. CFU-C were scored after 7-8 days incubation under standard conditions (20% O2, saturated humidity, 5% CO2, 37° C.). Peripheral blood cellularity was analyzed using an automated blood count machine (Drew Scientific). […]
# [2] = ultrafiltration 10 kDa, read-out: Plasma protein binding (converted)
SMILES,remaining at 24 h [1] [%],mouse pl. T1/2 [1] [h],"fraction unbound (Plasma protein binding; read-out: Fraction unbound, fu)",fraction unbound (Plasma protein binding; [2]),CFU/mL ± SD (HSC mobilization) [CFU/mL],"remaining at 24 h, 10 μM [1] [%]","fraction unbound at 1 h, 10 μM (Plasma protein binding; ultrafiltration 10 kDa)"
"CC(C)NCCCC[C@@H]1NC(=O)[C@H](CCC(N)=O)NC(=O)[C@H](Cc2ccc(O)cc2)NC(=O)[C@@H]2CSSC[C@H](NC(=O)[C@H](Cc3ccc(O)cc3)NC(=O)[C@H](Cc3c[nH]cn3)NC(=O)[C@H](Cc3ccc(O)cc3)NC(=O)[C@@H]3CCCN3C(=O)[C@H]3CCCN3C1=O)C(=O)N[C@@H](CO)C(=O)N[C@@H](C)C(=O)N1CCC[C@@H]1C(=O)N[C@@H](CCCNC(C)C)C(=O)N[C@@H](CCCNC(=N)N)C(=O)N[C@@H](Cc1ccc(O)cc1)C(=O)N2 [Ex. 1, cyclo(-Tyr^1-His^2-Tyr^3-Cys^4-Ser^5-Ala^6-^DPro^7-Orn(iPr)^8-Arg^9-Tyr^10-Cys^11-Tyr^12-Gln^13-Lys(iPr)^14-^DPro^15-Pro^16-) disulfide bond between Cys^4 and Cys^11] (cyclo(YHYCSA[dP][Orn(iPr)]RYCYQ[Lys(iPr)][dP]P); disulfide 4-11)",100,24,0.7,0.7,–,–,–
"COc1ccc(C[C@@H]2NC(=O)[C@H](Cc3c[nH]cn3)NC(=O)[C@H](Cc3ccc(O)cc3)NC(=O)[C@@H]3CCCN3C(=O)[C@H]3CCCN3C(=O)[C@H](CCCCNC(C)C)NC(=O)[C@H](CCC(N)=O)NC(=O)[C@H](Cc3ccc(O)cc3)NC(=O)[C@@H]3CSSC[C@H](NC2=O)C(=O)N[C@@H](CO)C(=O)N[C@@H](C)C(=O)N2CCC[C@@H]2C(=O)N[C@@H](CCCNC(C)C)C(=O)N[C@@H](CCCNC(=N)N)C(=O)N[C@@H](Cc2ccc(O)cc2)C(=O)N3)cc1 [Ex. 2, cyclo(-Tyr^1-His^2-Tyr(Me)^3-Cys^4-Ser^5-Ala^6-^DPro^7-Orn(iPr)^8-Arg^9-Tyr^10-Cys^11-Tyr^12-Gln^13-Lys(iPr)^14-^DPro^15-Pro^16-), disulfide bond between Cys^4 and Cys^11] (cyclo(YHY(Me)CSA[dP][Orn(iPr)]RYCYQ[Lys(iPr)][dP]P); disulfide 4-11)",100,24,0.52,0.52,2894,–,–
"CC(C)NCCCC[C@@H]1NC(=O)[C@H](CCC(N)=O)NC(=O)[C@H](Cc2ccc(O)cc2)NC(=O)[C@@H]2CSSC[C@H](NC(=O)[C@H](C)NC(=O)[C@H](Cc3c[nH]cn3)NC(=O)[C@H](Cc3ccc(O)cc3)NC(=O)[C@@H]3CCCN3C(=O)[C@H]3CCCN3C1=O)C(=O)N[C@@H](CO)C(=O)N[C@@H](C)C(=O)N[C@H](Cc1ccc(O)cc1)C(=O)N[C@@H](CCN)C(=O)N[C@@H](CCCNC(=N)N)C(=O)N[C@@H](Cc1ccc(O)cc1)C(=O)N2 [Ex. 3, cyclo(-Tyr^1-His^2-Ala^3-Cys^4-Ser^5-Ala^6-^DTyr^7-Dab^8-Arg^9-Tyr^10-Cys^11-Tyr^12-Gln^13-Lys(iPr)^14-^DPro^15-Pro^16-), disulfide bond between Cys^4 and Cys^11] (cyclo(YHACSA[dY][Dab]RYCYQ[Lys(iPr)][dP]P); disulfide 4-11)",–,24,–,–,–,98,0.52
"COc1ccc(C[C@H]2NC(=O)[C@H](C)NC(=O)[C@H](CO)NC(=O)[C@@H]3CSSC[C@H](NC(=O)[C@H](Cc4ccc(O)cc4)NC(=O)[C@H](CCCNC(=N)N)NC(=O)[C@H](CCCNC(C)C)NC2=O)C(=O)N[C@@H](Cc2ccc(O)cc2)C(=O)N[C@@H](CCC(N)=O)C(=O)N[C@@H](CCCCNC(C)C)C(=O)N2CCC[C@@H]2C(=O)N2CCC[C@H]2C(=O)N[C@@H](Cc2ccc(O)cc2)C(=O)N[C@@H](Cc2c[nH]cn2)C(=O)N[C@@H](C)C(=O)N3)cc1 [Ex. 4, cyclo(-Tyr^1-His^2-Ala^3-Cys^4-Ser^5-Ala^6-^DTyr(Me)^7-Orn(iPr)^8-Arg^9-Tyr^10-Cys^11-Tyr^12-Gln^13-Lys(iPr)^14-^DPro^15-Pro^16-), disulfide bond between Cys^4 and Cys^11] (cyclo(YHACSA[dY](Me)[Orn(iPr)]RYCYQ[Lys(iPr)][dP]P); disulfide 4-11)",60,24,0.44,0.44,–,–,–
"CC(C)NCCCC[C@@H]1NC(=O)[C@H](CCC(N)=O)NC(=O)[C@H](Cc2ccc(O)cc2)NC(=O)[C@@H]2CSSC[C@H](NC(=O)[C@H](Cc3ccc(O)cc3)NC(=O)[C@H](Cc3c[nH]cn3)NC(=O)[C@H](Cc3ccc(O)cc3)NC(=O)[C@@H]3CCCN3C(=O)[C@H]3CCCN3C1=O)C(=O)N[C@@H](CO)C(=O)N[C@@H](C)C(=O)N[C@H](Cc1ccc(O)cc1)C(=O)N[C@@H](CCCNC(C)C)C(=O)N[C@@H](CCCNC(=N)N)C(=O)N[C@@H](Cc1ccc(O)cc1)C(=O)N2 [Ex. 5, cyclo(-Tyr^1-His^2-Tyr^3-Cys^4-Ser^5-Ala^6-^DTyr^7-Orn(iPr)^8-Arg^9-Tyr^10-Cys^11-Tyr^12-Gln^13-Lys(iPr)^14-^DPro^15-Pro^16-), disulfide bond between Cys^4 and Cys^11] (cyclo(YHYCSA[dY][Orn(iPr)]RYCYQ[Lys(iPr)][dP]P); disulfide 4-11)",–,24,–,–,–,81,0.46
"COc1ccc(C[C@@H]2NC(=O)[C@H](Cc3c[nH]cn3)NC(=O)[C@H](Cc3ccc(O)cc3)NC(=O)[C@@H]3CCCN3C(=O)[C@H]3CCCN3C(=O)[C@H](CCCCNC(C)C)NC(=O)[C@H](CCC(N)=O)NC(=O)[C@H](Cc3ccc(O)cc3)NC(=O)[C@@H]3CSSC[C@H](NC2=O)C(=O)N[C@@H](CO)C(=O)N[C@@H](C)C(=O)N[C@H](Cc2ccc(OC)cc2)C(=O)N[C@@H](CCCNC(C)C)C(=O)N[C@@H](CCCNC(=N)N)C(=O)N[C@@H](Cc2ccc(O)cc2)C(=O)N3)cc1 [Ex. 6, cyclo(-Tyr^1-His^2-Tyr(Me)^3-Cys^4-Ser^5-Ala^6-^DTyr(Me)^7-Orn(iPr)^8-Arg^9-Tyr^10-Cys^11-Tyr^12-Gln^13-Lys(iPr)^14-^DPro^15-Pro^16-), disulfide bond between Cys^4 and Cys^11] (cyclo(YHY(Me)CSA[dY](Me)[Orn(iPr)]RYCYQ[Lys(iPr)][dP]P); disulfide 4-11)",–,24,–,–,–,68,0.37
